Measurements: patent publication US20170334899A1, “AMINO-SUBSTITUTED ISOTHIAZOLES” (Bayer Pharma Aktiengesellschaft, priority 2014, published 2017)

Experiments:
Format in all cases: cell-based
[1] = tested on: HeLa-MaTu-ADR; experiment: Proliferation assay (crystal violet), HeLa-MaTu-ADR; details: 96 h; HeLa-MaTu-ADR cells; 4 days incubation; crystal violet staining; read-out: IC50 inhibition of proliferation, HeLa-MaTu-ADR
Method in brief: (§1)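 Four-day compound exposure (0.001-10 μM, 0.5% DMSO final) began 24 h after seeding 1000-5000 cells/well in medium with 10% fetal calf serum. Cell number read by crystal violet absorbance at 595 nm, scaled between day-zero plate and untreated control; 4-parameter fit gave IC50.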

[2] = tested on: NCI-H460; experiment: Proliferation assay (crystal violet), NCI-H460; details: Homo sapiens, 96 h; NCI-H460 cells; 4 days incubation; crystal violet staining; read-out: IC50 inhibition of proliferation, NCI-H460
Method in brief: as §1

[3] = tested on: DU145; experiment: Proliferation assay (crystal violet), DU145; details: Homo sapiens, DU-145, 96 h; DU145 cells; 4 days incubation; crystal violet staining; read-out: IC50 inhibition of proliferation, DU145
Method in brief: as §1

[4] = tested on: Caco-2; experiment: Proliferation assay (crystal violet), Caco-2; details: Homo sapiens, 96 h; Caco-2 cells; 4 days incubation; crystal violet staining; read-out: IC50 inhibition of proliferation, Caco2
Method in brief: as §1

[5] = tested on: B16F10; experiment: Proliferation assay (crystal violet), B16F10; details: Mus musculus, B16-F10, 96 h; B16F10 cells; 4 days incubation; crystal violet staining; read-out: IC50 inhibition of proliferation, B16F10
Method in brief: as §1

SMILES	IC50 [1]	IC50 [2]	IC50 [3]	IC50 [4]	IC50 [5]
Cc1nsc(Nc2cnc(C(F)(F)F)cn2)c1C(=O)Nc1ccc(OC2CCN(C(=O)OC(C)(C)C)CC2)nc1 [Example 5, tert-Butyl 4-[(5-{[(3-methyl-5-{[5-(trifluoromethyl)pyrazin-2-yl]amino}-1,2-thiazol-4-yl)carbonyl]amino}pyridin-2-yl)oxy]piperidine-1-carboxylate]	370 nM	250 nM	520 nM	350 nM	350 nM
Cc1nsc(Nc2ccc(C#N)cn2)c1C(=O)Nc1ccc(OC2CCCN(C(=O)OC(C)(C)C)C2)nc1 (stereo not drawn) [Example 36, tert-Butyl 3-({5-[({5-[(5-cyanopyridin-2-yl)amino]-3-methyl-1,2-thiazol-4-yl}-carbonyl)amino]pyridin-2-yl}oxy)piperidine-1-carboxylate]	330 nM	400 nM	860 nM	330 nM	550 nM
Cc1nsc(Nc2ccc(C#N)cn2)c1C(=O)Nc1ccc(OC2CCCN(CC(F)F)C2)nc1 (stereo not drawn) [Example 39, 5-[(5-Cyanopyridin-2-yl)amino]-N-(6-{[1-(2,2-difluoroethyl)piperidin-3-yl]oxy}-pyridin-3-yl)-3-methyl-1,2-thiazole-4-carboxamide]	810 nM	990 nM	2000 nM	1500 nM	2200 nM

Continued by falling IC50 [1], values first:

IC50 [1]	IC50 [2]	IC50 [3]	IC50 [4]	IC50 [5]	SMILES
590 nM	460 nM	1100 nM	650 nM	910 nM	Cc1nsc(Nc2cnc3ccccc3n2)c1C(=O)Nc1cccc(C(=O)OC(C)(C)C)c1 [Example 49, tert-Butyl 3-({[3-methyl-5-(quinoxalin-2-ylamino)-1,2-thiazol-4-yl]carbonyl}amino)-benzoate]
370 nM	240 nM	440 nM	260 nM	410 nM	COCCOc1ccc(NC(=O)c2c(C)nsc2Nc2nc3c(C(F)(F)F)cccc3s2)cc1F [Example 1, N-[3-Fluoro-4-(2-methoxyethoxy)phenyl]-3-methyl-5-{[4-(trifluoromethyl)-1,3-benzothiazol-2-yl]amino}-1,2-thiazole-4-carboxamide]
320 nM	360 nM	660 nM	500 nM	780 nM	Cc1nsc(Nc2ccc(C#N)cn2)c1C(=O)Nc1ccc(OC2CCCN(CC(F)(F)F)C2)nc1 (stereo not drawn) [Example 40, 5-[(5-Cyanopyridin-2-yl)amino]-3-methyl-N-(6-{[1-(2,2,2-trifluoroethyl)piperidin-3-yl]oxy}pyridin-3-yl)-1,2-thiazole-4-carboxamide]
